Data as given in BindingDB's records for patent US12291519 (Idorsia Pharmaceuticals, 2025).
pIC50: −log10 of the molar value.

How the values were obtained:
Galectin-3 = Galectin-3 (Homo sapiens, UniProt P17931); experiment: Biological Assay
Description: (§1) The inhibitory activity of compounds is determined in competitive binding assays. […] Finally, 25 μL/well of ABTS substrate is added.

Galectin-1 = Galectin-1 (Homo sapiens, UniProt P09382); experiment: Biological Assay
Description: as §1

Chain of Galectin-1 (P09382 whole entry): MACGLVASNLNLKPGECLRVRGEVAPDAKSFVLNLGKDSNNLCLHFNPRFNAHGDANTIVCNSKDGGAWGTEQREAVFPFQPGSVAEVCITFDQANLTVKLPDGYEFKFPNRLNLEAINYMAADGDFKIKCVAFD
Chain of Galectin-3 (P17931 whole entry): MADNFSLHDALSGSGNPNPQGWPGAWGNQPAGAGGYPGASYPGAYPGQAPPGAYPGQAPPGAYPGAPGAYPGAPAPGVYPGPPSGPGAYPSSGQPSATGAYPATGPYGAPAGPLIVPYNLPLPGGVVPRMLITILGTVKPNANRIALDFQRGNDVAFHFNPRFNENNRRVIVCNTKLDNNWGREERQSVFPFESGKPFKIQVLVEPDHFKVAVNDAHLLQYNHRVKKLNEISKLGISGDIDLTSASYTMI

SMILES | pIC50 (Galectin-3) | pIC50 (Galectin-1)
Cc1nc(CN(C(=O)[C@@H]2O[C@H](CO)[C@H](O)[C@H](n3cc(-c4cc(F)c(F)c(F)c4)nn3)[C@H]2O)[C@H]2CCCC[C@@H]2O)c[nH]1 [US12291519, Example 14] | 6.25 | 4.39
Cn1cnc(CN(C(=O)[C@@H]2O[C@H](CO)[C@H](O)[C@H](n3cc(-c4cc(F)c(F)c(F)c4)nn3)[C@H]2O)[C@H]2CCCC[C@@H]2O)c1 [US12291519, Example 19] | 6.39 | 4.42
CO[C@@H]1[C@@H](n2cc(-c3cc(F)cc(F)c3)nn2)[C@@H](O)[C@@H](CO)O[C@H]1C(=O)N(c1cc(Cl)cc(Cl)c1)[C@H]1CCCC[C@@H]1O [US12291519, Example 78] | 7.59 | 6.72
CO[C@@H]1[C@@H](n2cc(-c3cc(F)cc(Cl)c3)nn2)[C@@H](O)[C@@H](CO)O[C@H]1C(=O)N(c1cc(Cl)cc(C#N)c1)[C@H]1CCCC[C@@H]1O [US12291519, Example 133] | 7.66 | 6.74
CO[C@@H]1[C@@H](n2cc(-c3cc(F)c(Cl)c(F)c3)nn2)[C@@H](O)[C@@H](CO)O[C@H]1C(=O)N(c1cc(Cl)cc(C#N)c1)[C@H]1CCCC[C@@H]1O [US12291519, Example 157] | 7.72 | 6.15
CO[C@@H]1[C@@H](n2cc(-c3cc(F)c(Cl)c(Cl)c3)nn2)[C@@H](O)[C@@H](CO)O[C@H]1C(=O)N(c1cc(Cl)cc(C#N)c1)[C@H]1CCCC[C@@H]1O [US12291519, Example 169] | 7.85 | 6.48
COc1cc(-c2cn([C@H]3[C@@H](O)[C@@H](CO)O[C@@H](C(=O)N(c4cc(Cl)cc(Cl)c4)[C@H]4CCCC[C@@H]4O)[C@@H]3OC)nn2)cc(F)c1F [US12291519, Example 183] | 8.05 | 6.29
COc1cc(-c2cn([C@H]3[C@@H](O)[C@@H](CO)O[C@@H](C(=O)N(c4cc(Cl)cc(C#N)c4)[C@H]4CCCC[C@@H]4O)[C@@H]3OC)nn2)ccc1Cl [US12291519, Example 184] | 7.54 | 6.55

Second part, the compound after the results:

pIC50 (Galectin-3) | pIC50 (Galectin-1) | SMILES
6.53 | 4.59 | Cn1ccc(CN(C(=O)[C@@H]2O[C@H](CO)[C@H](O)[C@H](n3cc(-c4cc(F)c(F)c(F)c4)nn3)[C@H]2O)[C@H]2CCCC[C@@H]2O)n1 [US12291519, Example 24]
7.38 | 6.21 | O=C([C@@H]1O[C@H](CO)[C@H](O)[C@H](n2cc(-c3cc(F)c(Cl)c(F)c3)nn2)[C@H]1O)N(Cc1ccccc1C(F)(F)F)[C@H]1CCCC[C@@H]1O [US12291519, Example 67]
7.51 | 7.24 | CO[C@@H]1[C@@H](n2cc(-c3cccc(F)c3)nn2)[C@@H](O)[C@@H](CO)O[C@H]1C(=O)N(c1cc(Cl)cc(Cl)c1)[C@H]1CCCC[C@@H]1O [US12291519, Example 72]
7.43 | 6.85 | CO[C@@H]1[C@@H](n2cc(-c3cccc(F)c3)nn2)[C@@H](O)[C@@H](CO)O[C@H]1C(=O)N(c1cc(Br)cc(C#N)c1)[C@H]1CCCC[C@@H]1O [US12291519, Example 77]
7.48 | 6.77 | CO[C@@H]1[C@@H](n2cc(-c3cc(F)c(F)c(F)c3)nn2)[C@@H](O)[C@@H](CO)O[C@H]1C(=O)N(c1ccc(Cl)c(Cl)c1)[C@H]1CCCC[C@@H]1O [US12291519, Example 98]
8.10 | 6.82 | CO[C@@H]1[C@@H](n2cc(-c3cc(F)c(F)c(F)c3)nn2)[C@@H](O)[C@@H](CO)O[C@H]1C(=O)N(c1cc(Br)cc(C#N)c1)[C@H]1CCCC[C@@H]1O [US12291519, Example 112]
7.85 | 5.86 | CO[C@@H]1[C@@H](n2cc(-c3cc(F)c(Cl)c(F)c3)nn2)[C@@H](O)[C@@H](CO)O[C@H]1C(=O)N(c1cc(Cl)cc(Cl)c1)[C@H]1CCCC[C@@H]1O [US12291519, Example 156]
7.96 | 5.92 | CO[C@@H]1[C@@H](n2cc(-c3ccc(C(F)(F)F)c(F)c3)nn2)[C@@H](O)[C@@H](CO)O[C@H]1C(=O)N(c1cc(Cl)cc(Cl)c1)[C@H]1CCCC[C@@H]1O [US12291519, Example 180]
7.46 | 6.57 | CO[C@@H]1[C@@H](n2cc(-c3cc(F)c(Cl)cc3F)nn2)[C@@H](O)[C@@H](CO)O[C@H]1C(=O)N(c1cc(Cl)cc(C#N)c1)[C@H]1CCCC[C@@H]1O [US12291519, Example 182]
7.36 | 5.95 | COc1cc(C#N)cc(N(C(=O)[C@@H]2O[C@H](CO)[C@H](O)[C@H](n3cc(-c4ccc(Cl)c(Cl)c4)nn3)[C@H]2OC)[C@H]2CCCC[C@@H]2O)c1 [US12291519, Example 188]
7.68 | 6.79 | O=C([C@@H]1O[C@H](CO)[C@H](O)C(n2cc(-c3cc(F)c(F)c(F)c3)nn2)[C@H]1OCCO)N(c1cc(Cl)cc(Cl)c1)[C@H]1CCCC[C@@H]1O (stereo partly drawn) [US12291519, Example 196]
